How the values were obtained:
[1] = target: T1, Human HDAC2 (Homo sapiens, UniProt Q92769); assay: Biochemical HDAC enzymatic assay, HDAC2; settings: incubation time 120 min
T1 construct: full-length with a C-terminal His-tag, MW=56 kDa; His-tag (C); made in house; host or cells: baculovirus expression system
Experimental: (§1) Incubation time for HDAC1/2 is 120 min, and 10 min for other HDACs.
Human HDAC2 (GenBank Accession No. NM_001527), full-length with a C-terminal His-tag, MW=56 kDa, was expressed in a baculovirus expression system.
(§2) • I. Compound handling: Testing compounds were dissolved in 100% DMSO to a specific concentration. The serial dilution was conducted by epMotion 5070 in DMSO. • II. HDAC reaction buffer: 50 mM Tris-HCl, pH8.0, 137 mM NaCl, 2.7 mM KCl, and 1 mM MgCl2, Added fresh: 1 mg/ml BSA, 1% DMSO. • III. Substrate: Fluorogenic HDAC General Substrate for HDAC1, 2, 3, 6, 10, 11 ans Sirt1, 2 and 3: Arg-His-Lys-Lys(Ac); HDAC8 only substrate: Arg-His-Lys(Ac)-Lys(Ac); Class2A Substrate (HDAC4, 5, 7 and 9): Acetyl-Lys(trifluoroacetyl)-AMC; Sirt5 substrate: Ac-Lys(succinyl)-AMC. • IV. General Reaction Procedure: (Standard IC50 determination) • a. Delivered 2× enzyme in wells of reaction plate except No Enzyme (No En) control wells. Add buffer in No En wells. • b. Delivered compounds in 100% DMSO into the enzyme mixture by Acoustic technology (Echo550; nanoliter range). Spin down and pre-incubation. • c. Delivered 2× Substrate Mixture (Fluorogenic HDAC Substrate and co-factor (500 μM of Nicotinamide adenine dinucleotide (NAD^+) in all Sirt assay) in all reaction wells to initiate the reaction. Spin and shake. • d. Incubated for 1-2 hr. at 30° C. with seal. • e. Added Developer with Trichostatin A (or TMP269 or NAD^+) to stop the reaction and to generate fluorescent color. • f. Fluorescence was read (excitatory, 360; emission, 460) using the EnVision Multilabel Plate Reader (Perkin Elmer) • g. Endpoint reading was taken for analysis after the development reaches plateau. • V. Data Analysis: The percentages of enzyme activity (relative to DMSO controls) and IC50 values were calculated using the GraphPad Prism 4 program based on a sigmoidal dose-response equation.
(§3) The inhibitory activities of HDAC of compounds of the invention were determined using biochemical HDAC assays. Compounds were tested at the indicated doses in the biochemical assays of HDAC1, HDAC2, HDAC3, HDAC4, HDAC5, HDAC6, HDAC7, HDAC8, HDAC9, HDAC10, or HDAC11 enzyme. The curve fit and IC50 values were calculated using the GraphPad Prism 4 program based on a sigmoidal dose-response equation.
as §2, with “[…]” for “μM”, “equation. […]” for “equation.”

[2] = target: T2, Complex of human HDAC3 and human NCOR2 (Homo sapiens, UniProt O15379); assay: Biochemical HDAC enzymatic assay, HDAC3; settings: incubation time 10 min
T2 construct: full-length with a C-terminal His tag, MW=49.7 kDa; His tag (C); made in house; host or cells: baculovirus expression system
Experimental: as §1
Complex of human HDAC3 (GenBank Accession No. NM_003883), full-length with a C-terminal His tag, MW=49.7 kDa, and human NCOR2 (amino acid 395-489) (GenBank Accession No. NM_006312), N-terminal GST tag, MW=37.6 kDa, was co-expressed in a baculovirus expression system.
as §2, §3
• I. Compound handling: Testing compounds were dissolved in 100% DMSO to a specific concentration. The serial dilution was conducted by epMotion 5070 in DMSO. • II. HDAC reaction buffer: 50 mM Tris-HCl, pH8.0, 137 mM NaCl, 2.7 mM KCl, and 1 mM MgCl2, Added fresh: 1 mg/ml BSA, 1% DMSO. • III. Substrate: Fluorogenic HDAC General Substrate for HDAC1, 2, 3, 6, 10, 11 ans Sirt1, 2 and 3: Arg-His-Lys-Lys(Ac); HDAC8 only substrate: Arg-His-Lys(Ac)-Lys(Ac); Class2A Substrate (HDAC4, 5, 7 and 9): Acetyl-Lys(trifluoroacetyl)-AMC; Sirt5 substrate: Ac-Lys(succinyl)-AMC. • IV. General Reaction Procedure: (Standard IC50 determination) • a. Delivered 2× enzyme in wells of reaction plate except No Enzyme (No En) control wells. Add buffer in No En wells. • b. Delivered compounds in 100% DMSO into the enzyme mixture by Acoustic technology (Echo550; nanoliter range). Spin down and pre-incubation. • c. […]

T1 sequence (Q92769 whole entry): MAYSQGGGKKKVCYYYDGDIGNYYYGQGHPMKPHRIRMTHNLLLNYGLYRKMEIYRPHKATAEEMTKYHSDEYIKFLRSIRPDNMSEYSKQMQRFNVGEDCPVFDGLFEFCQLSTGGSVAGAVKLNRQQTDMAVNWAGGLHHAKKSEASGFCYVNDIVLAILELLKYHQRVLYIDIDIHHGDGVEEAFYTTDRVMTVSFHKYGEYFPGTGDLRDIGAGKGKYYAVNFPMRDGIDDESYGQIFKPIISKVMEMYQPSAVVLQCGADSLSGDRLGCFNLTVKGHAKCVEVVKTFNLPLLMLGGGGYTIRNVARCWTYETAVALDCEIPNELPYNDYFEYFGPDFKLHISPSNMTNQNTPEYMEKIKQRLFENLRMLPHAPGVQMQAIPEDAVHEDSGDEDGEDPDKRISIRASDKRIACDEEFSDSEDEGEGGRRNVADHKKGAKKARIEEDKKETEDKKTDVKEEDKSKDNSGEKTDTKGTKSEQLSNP
T2 sequence (O15379 whole entry): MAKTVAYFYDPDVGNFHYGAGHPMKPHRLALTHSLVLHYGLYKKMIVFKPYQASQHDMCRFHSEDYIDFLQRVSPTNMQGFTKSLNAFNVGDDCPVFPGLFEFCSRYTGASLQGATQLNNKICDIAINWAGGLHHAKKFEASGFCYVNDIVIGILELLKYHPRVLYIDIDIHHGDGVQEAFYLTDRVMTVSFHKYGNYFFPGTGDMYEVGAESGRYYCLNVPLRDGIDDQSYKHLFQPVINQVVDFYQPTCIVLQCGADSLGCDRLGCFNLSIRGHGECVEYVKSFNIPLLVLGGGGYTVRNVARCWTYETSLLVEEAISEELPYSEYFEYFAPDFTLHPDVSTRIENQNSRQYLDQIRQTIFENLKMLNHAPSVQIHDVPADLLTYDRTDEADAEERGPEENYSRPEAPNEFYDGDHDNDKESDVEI
T2 sequence (Q9Y618 395-489 partner limits assumed): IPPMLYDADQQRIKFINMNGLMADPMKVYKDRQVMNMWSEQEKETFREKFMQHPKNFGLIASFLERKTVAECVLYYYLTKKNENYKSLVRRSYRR

O=C(NO)c1ccc(CN2C(=O)c3ccccc3C23OCCO3)cc1 [Compound Example 8, N-hydroxy-4-((3-oxospiro[isoindoline-1,2′-[1,3]dioxolan]-2-yl)methyl)benzamide]
IC50 ([1]; Table 2): > 10 µM
IC50 ([2]; Table 2): > 10 µM

Nc1ccc(-c2ccc(F)cc2)cc1NC(=O)c1ccc(N2CC3(CCOCC3)OC2=O)nc1 [Example 5, N-(4-amino-4′-fluoro-[1,1′-biphenyl]-3-yl)-6-(2-oxo-1,8-dioxa-3-azaspiro[4.5]decan-3-yl)nicotinamide]
IC50 ([1]; Table 1): 0.115 µM
IC50 ([2]; Table 1): > 20 µM

Nc1cc(F)ccc1NC(=O)c1ccc(CN2C(=O)CCCC23CNC3)cc1 [Example 3, N-(2-amino-4-fluorophenyl)-4-((6-oxo-2,5-diazaspiro[3.5]nonan-5-yl)methyl)benzamide]
IC50 ([1]; Table 1): 11.8 µM
IC50 ([2]; Table 1): 1.9 µM

CN1CCC2(CC1)CN(c1ccc(C(=O)Nc3cc(-c4cccs4)ccc3N)cn1)C(=O)O2 [Example 4, N-(2-amino-5-(thiophen-2-yl)phenyl)-6-(8-methyl-2-oxo-1-oxa-3,8-diazaspiro[4.5]decan-3-yl)nicotinamide]
IC50 ([1]; Table 1): 0.064 µM
IC50 ([2]; Table 1): 17.4 µM

Nc1ccc(-c2cccs2)cc1NC(=O)c1ccc(CN2C(=O)CCC23CCNCC3)cc1 [Example 2, N-(2-amino-5-(thiophen-2-yl)phenyl)-4-((2-oxo-1,8-diazaspiro[4.5]decan-1-yl)methyl)benzamide]
IC50 ([1]; Table 1): 0.146 µM
IC50 ([2]; Table 1): > 20 µM

CN(C)C(=O)N1CCC2(CC1)c1ccccc1C(=O)N2Cc1ccc(C(=O)NO)cc1 [Compound Example 11, 2-(4-(hydroxycarbamoyl)benzyl)-N,N-dimethyl-3-oxospiro[isoindoline-1,4′-piperidine]-1′-carboxamide]
IC50 ([1]; Table 2): > 10 µM
IC50 ([2]; Table 2): > 10 µM

Nc1ccc(-c2cccs2)cc1NC(=O)c1ccc(CN2C(=O)CCCC23CNC3)cc1 [Example 1, N-(2-amino-5-(thiophen-2-yl)phenyl)-4-((6-oxo-2,5-diazaspiro[3.5]nonan-5-yl)methyl)benzamide]
IC50 ([1]; Table 1): 0.06 µM
IC50 ([2]; Table 1): 13 µM

O=C(NO)c1ccc(CN2C(=O)C3(CCOC3)c3ccccc32)cc1 (stereo not shown) [Compound Example 9]
IC50 ([1]; Table 2): 17.2 µM
IC50 ([2]; Table 2): 21 µM

Nc1ccc(-c2cccs2)cc1NC(=O)c1ccc(N2CC3(CCNCC3)CCC2=O)nc1 [Example 6, N-(2-amino-5-(thiophen-2-yl)phenyl)-6-(3-oxo-2,9-diazaspiro[5.5]undecan-2-yl)nicotinamide]
IC50 ([1]; Table 1): 0.61 µM
IC50 ([2]; Table 1): > 20 µM

O=C(NO)c1ccc(CN2C(=O)c3ccccc3C23CCN(C2CC2)CC3)cc1 [Compound Example 12, 4-((1′-cyclopropyl-3-oxospiro[isoindoline-1,4′-piperidin]-2-yl)methyl)-N-hydroxybenzamide]
IC50 ([1]; Table 2): > 10 µM
IC50 ([2]; Table 2): 9.26 µM

O=C(NO)c1ccc(CN2C(=O)c3ccccc3C23CCNCC3)cc1 [Compound Example 10, N-hydroxy-4-((3-oxospiro[isoindoline-1,4′-piperidin]-2-yl)methyl)benzamide]
IC50 ([1]; Table 2): > 10 µM
IC50 ([2]; Table 2): 7 µM
